{"source": "patent EP2446893A1", "about": "(priority 2010, dated 2012)", "key": {"[1]": {"target": "T1, OATP1B3 (Homo sapiens, UniProt Q9NPD5)", "T1 sequence (Q9NPD5 whole entry)": "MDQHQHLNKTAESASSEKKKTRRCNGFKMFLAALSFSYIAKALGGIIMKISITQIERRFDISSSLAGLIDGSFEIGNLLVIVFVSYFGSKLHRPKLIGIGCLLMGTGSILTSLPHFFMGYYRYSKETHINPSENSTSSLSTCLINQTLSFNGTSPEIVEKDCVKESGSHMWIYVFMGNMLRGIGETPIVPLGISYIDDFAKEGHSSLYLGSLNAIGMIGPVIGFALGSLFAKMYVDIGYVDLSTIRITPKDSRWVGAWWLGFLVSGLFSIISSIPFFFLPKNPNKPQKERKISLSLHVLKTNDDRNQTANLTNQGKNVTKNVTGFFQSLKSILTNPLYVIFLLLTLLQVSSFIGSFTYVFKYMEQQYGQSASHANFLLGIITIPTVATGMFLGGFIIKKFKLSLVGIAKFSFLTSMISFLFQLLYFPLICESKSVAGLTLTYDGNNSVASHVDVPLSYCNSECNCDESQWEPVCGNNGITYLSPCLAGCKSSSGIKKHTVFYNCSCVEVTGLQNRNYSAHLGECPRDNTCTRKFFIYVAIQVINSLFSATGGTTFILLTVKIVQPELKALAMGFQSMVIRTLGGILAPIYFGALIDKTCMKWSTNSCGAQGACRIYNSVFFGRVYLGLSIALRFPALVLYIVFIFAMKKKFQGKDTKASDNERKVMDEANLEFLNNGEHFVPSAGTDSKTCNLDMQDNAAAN"}, "[2]": {"test_system": "primary rat hepatocytes", "type": "cell-based", "settings": "hepatocytes incubated for 96 hours", "procedure": "(§1) Rat hepatocytes were isolated by in vitro collagenase perfusion, Mellgren G, et al., Journal of Cellular Physiology 1995;163:232-240. Experimental conditions were as described in Herfindal L, et al., J Med Chem 2009;52:5758-5762, except for assay of NaN3 and general cytotoxicity, where the hepatocytes were seeded in collage-coated 24-well culture dishes. Microinjection of hepatocytes was as described previously, Fladmark KE, et al., Hepatology 1997;25:847-855. The hepatocyte death (by apoptosis or necrosis) was evaluated by microscopy. Long-term hepatocyte viability was assessed also by the WST-1 colorimetric assay of mitochondrial dehydrogenase activity (Roche Applied Sciences, Mannheim, Germany)."}, "[3]": {"target": "T2, OATP1B1 (Homo sapiens, UniProt Q9Y6L6)", "type": "cell-based"}, "[4]": {"target": "T2, OATP1B1"}, "[5]": {"target": "T3, Oatp1b2 (Rattus norvegicus, UniProt Q9QZX8)", "T3 sequence (Q9QZX8 1-687)": "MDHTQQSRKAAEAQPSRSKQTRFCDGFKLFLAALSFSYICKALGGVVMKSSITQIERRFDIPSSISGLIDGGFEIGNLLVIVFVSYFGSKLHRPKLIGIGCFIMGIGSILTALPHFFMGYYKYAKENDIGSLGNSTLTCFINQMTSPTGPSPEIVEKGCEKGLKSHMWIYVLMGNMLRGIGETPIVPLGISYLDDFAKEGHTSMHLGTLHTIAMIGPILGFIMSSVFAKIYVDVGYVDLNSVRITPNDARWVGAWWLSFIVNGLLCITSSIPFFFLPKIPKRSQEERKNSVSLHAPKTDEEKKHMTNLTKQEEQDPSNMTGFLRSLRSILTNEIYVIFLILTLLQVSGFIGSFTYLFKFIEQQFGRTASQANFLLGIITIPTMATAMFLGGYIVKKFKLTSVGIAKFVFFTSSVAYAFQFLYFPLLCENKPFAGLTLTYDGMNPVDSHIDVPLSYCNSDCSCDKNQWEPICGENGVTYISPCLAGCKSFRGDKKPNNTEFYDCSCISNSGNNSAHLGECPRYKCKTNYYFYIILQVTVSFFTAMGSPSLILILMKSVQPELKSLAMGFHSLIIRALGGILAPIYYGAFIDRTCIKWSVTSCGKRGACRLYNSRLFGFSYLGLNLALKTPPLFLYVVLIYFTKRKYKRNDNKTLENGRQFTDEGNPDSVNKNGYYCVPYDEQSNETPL"}, "[6]": {"assay": "solubility in physiological saline", "type": "physicochemical"}, "[7]": {"test_system": "HEK 293 cells", "assay": "toxicity for HEK 293 cells with and without OATP1B1/B3 overexpression", "settings": "not shown"}, "[8]": {"test_system": "primary rat hepatocytes", "assay": "hepatocyte toxicity / long-term viability (microscopy, WST-1)", "type": "cell-based", "settings": "for inherent toxicity (morphology, growth, mitochondrial dehydrogenase activity of hepatocytes): hepatocytes incubated for 96 hours; for toxicity for primary rat hepatocytes: not shown", "procedure": "as §1"}, "[9]": {"test_system": "CaM-KII", "type": "biochemical"}, "[10]": {"target": "T3, Oatp1b2", "remark": "listed apart in the source"}, "[11]": {"test_system": "primary rat hepatocytes"}, "[12]": {"assay": "stability on storage and in solution", "type": "physicochemical"}, "[13]": {"target": "T2, OATP1B1", "remark": "listed apart in the source"}, "[14]": {"target": "T1, OATP1B3", "settings": "Gui et al. 2010; cited from earlier work"}, "[15]": {"target": "rat hepatocyte channel Oatp1b2 (rat) (UniProt Q9QZX8)", "assay": "cell-based or functional assay"}}, "note": "Like-named read-outs stand apart in the source and are kept apart here. Starred links: 1 amine or outer side, 2 acyl side, 3 side chain; linkers in the order of their positions; H or OH if unused. Non-standard residues stand in square brackets, D forms with d. Residues, ends and D or L forms follow the SMILES beside them. No end group written: not given here. ξ: configuration not given here. X1 = O=C(C(Cc1ccc(O)cc1)N=CC(Cc1ccc(O)cc1)N[*:1])[*:2]; Pro(4S-Me) = C[C@@H]1CN[C@H](C(=O)O)C1; d(hSer) = N[C@H](CCO)C(=O)O; ξY = NC(Cc1ccc(O)cc1)C(=O)O", "data": [{"molecule": "YYSPVPY [linear version of the same peptide, Tyr-Tyr-Ser-Pro-Val-Pro-Tyr]", "values": [{"measurement": "potency compared with another peptide", "setting": "[1]", "value": "considerably less potent"}]}, {"molecule": "O=C1OC(c2ccc(O)c(S(=O)(=O)O)c2)(c2ccc(O)c(S(=O)(=O)O)c2)c2c(Br)c(Br)c(Br)c(Br)c21", "note": "[BSP, bromosulfophthalein]", "values": [{"measurement": "inherent toxicity (morphology, growth, mitochondrial dehydrogenase activity of hepatocytes)", "setting": "[2]", "value": "highly toxic"}]}, {"molecule": "C/C=C1/C(=O)N[C@@H](C(=O)O)[C@H](C)C(=O)N[C@@H](CCCNC(=N)N)C(=O)N[C@@H](/C=C/C(C)=C/[C@H](C)[C@H](Cc2ccccc2)OC)[C@H](C)C(=O)N[C@@H](C(=O)O)CCC(=O)N1C", "note": "[nodularin]", "values": [{"measurement": "Km", "setting": "[3]", "value": 32, "unit": "nM"}]}, {"molecule": "CC(C)[C@@H]1NC(=O)[C@@H]2CCCN2C(=O)[C@H](CO)NC(=O)[C@H](Cc2ccc(O)cc2)NC(=O)[C@H](Cc2ccc(O)cc2)NC(=O)[C@H](Cc2ccc(O)cc2)NC(=O)[C@@H]2CCCN2C1=O", "note": "[cyclic peptide of Seq. ID. No. 1, Tyr1-Tyr2-Ser-Pro-Val-Pro-Tyr7] (cyclo(PVPYYYS))", "values": [{"measurement": "inhibition of nodularin uptake / nodularin-induced apoptosis", "setting": "[4]", "value": "inhibited completely"}, {"measurement": "potency compared with another peptide", "setting": "[4]", "value": "lower potency than Ncp-M1"}, {"measurement": "inhibition of nodularin uptake / nodularin-induced apoptosis", "setting": "[5]", "value": "inhibited completely"}, {"measurement": "potency compared with another peptide", "setting": "[5]", "value": "lower potency than Ncp-M1"}, {"measurement": "solubility in physiological saline", "setting": "[6]", "value": "high solubility"}, {"measurement": "inhibition of nodularin uptake / nodularin-induced apoptosis", "setting": "[1]", "value": "inhibited completely"}, {"measurement": "potency compared with another peptide", "setting": "[1]", "value": "lower potency than Ncp-M1"}, {"measurement": "preference for inhibition of OATP1B3", "setting": "[1]", "value": "even higher OATP1 B3 preference"}, {"measurement": "toxicity for HEK 293 cells", "setting": "[7]", "value": "non-toxic"}, {"measurement": "inherent toxicity (morphology, growth, mitochondrial dehydrogenase activity of hepatocytes)", "setting": "[8]", "value": "no apparent inherent toxicity"}, {"measurement": "toxicity for primary rat hepatocytes", "setting": "[8]", "value": "non-toxic"}]}, {"molecule": "CC(C)[C@@H]1NC(=O)[C@@H]2CCCN2C(=O)[C@@H](CCO)NC(=O)C(Cc2ccc(O)cc2)NC(=O)C(Cc2ccc(O)cc2)N=CC(Cc2ccc(O)cc2)NC(=O)[C@@H]2C[C@H](C)CN2C1=O", "note": "(stereo partly drawn) [Ncp-M1] (cyclo([X1][ξY][d(hSer)]PV[Pro(4S-Me)]))", "values": [{"measurement": "interference with intracellular steps of microcystin action (protein phosphatase inhibition, CaM-KII activation, ROS production, actin rearrangement)", "setting": "[9]", "value": "did not interfere"}, {"measurement": "solubility in physiological saline", "setting": "[6]", "value": "high solubility"}, {"measurement": "Ki", "setting": "[10]", "value": 350, "unit": "nM"}, {"measurement": "Ki", "setting": "[1]", "value": 0.01063, "unit": "nM"}, {"measurement": "hepatocyte uptake of microcystin and nodularin", "setting": "[11]", "value": "blocks"}, {"measurement": "toxicity for HEK 293 cells", "setting": "[7]", "value": "non-toxic"}, {"measurement": "stability in solution", "setting": "[12]; in solution, in particular acidic solutions", "value": "degrade in solution"}, {"measurement": "stability on storage", "setting": "[12]; stored at -70°C", "value": "non-stable"}, {"measurement": "Ki", "setting": "[13]", "value": 1500, "unit": "nM"}, {"measurement": "inherent toxicity (morphology, growth, mitochondrial dehydrogenase activity of hepatocytes)", "setting": "[8]", "value": "no apparent inherent toxicity"}, {"measurement": "toxicity for primary rat hepatocytes", "setting": "[8]", "value": "non-toxic"}]}, {"molecule": "C[C@H]1[C@H](C)CC[C@]2(C(=O)O)CC[C@]3(C)C(=CC[C@@H]4[C@@]5(C)CC[C@H](O)C(C)(C)[C@@H]5CC[C@]43C)[C@H]12", "note": "[ursolic acid]", "values": [{"measurement": "selectivity for OATP1B3 compared to OATP1B1", "setting": "[14]", "value": "ten times"}]}, {"molecule": "microcystin-LR (peptide)", "values": [{"measurement": "apparent KM for uptake, deduced from apoptosis of primary rat hepatocytes", "setting": "[15]", "value": 0.00027, "unit": "nM"}]}]}
